Source: patent US8956999B2, “Herbicides” (Syngenta Limited, priority 2007, dated 2015)

What was measured:
Assay type in all cases: in vivo
[1] = tested on: Alopecurus myosuroides (ALOMY); test: Example B post-emergence herbicidal test, glasshouse; conditions: 312 h, rate 250 g/ha, evaluated after 13 days, read-out: Post-Emergence Activity ALOMY (100=total damage to plant; 0=no damage to plant)
Description: (§1) Seeds of a variety of test species were sown in standard soil in pots. After cultivation for one day (pre-emergence) or after 8 days cultivation (post-emergence) under controlled conditions in a glasshouse (at 24/16° C., day/night; 14 hours light; 65% humidity), the plants were sprayed with an aqueous spray solution derived from the formulation of the technical active ingredient in acetone/water (50:50) solution containing 0.5% Tween 20 (polyoxyethelyene sorbitan monolaurate, CAS RN 9005-64-5). The test plants were then grown in a glasshouse under controlled conditions in a glasshouse (at 24/16° C., day/night; 14 hours light; 65% humidity) and watered twice daily. After 13 days for pre and post-emergence, the test was evaluated (100=total damage to plant; 0=no damage to plant). Test Plants: Alopecurus myosuroides (ALOMY), Avena fatua (AVEFA), Setaria faberi (SETFA), Echinochloa crus-galli (ECHCG), Solanum nigrum (SOLNI) and Amaranthus retoflexus (AMARE)

[2] = tested on: Amaranthus retoflexus (AMARE); test: as above; conditions: Amaranthus retroflexus, 312 h, rate 250 g/ha, evaluated after 13 days, read-out: Post-Emergence Activity AMARE (100=total damage to plant; 0=no damage to plant)
Description: as §1

Avena fatua (AVEFA) [3] = test: as above; conditions: 312 h, rate 250 g/ha, evaluated after 13 days, read-out: Post-Emergence Activity AVEFA (100=total damage to plant; 0=no damage to plant)
Description: as §1

[4] = tested on: Echinochloa crus-galli (ECHCG); test: as above; conditions: 312 h, rate 250 g/ha, evaluated after 13 days, read-out: Post-Emergence Activity ECHGG (100=total damage to plant; 0=no damage to plant)
Description: as §1

Setaria faberi (SETFA) [5] = test: as above; conditions: 312 h, rate 250 g/ha, evaluated after 13 days, read-out: Post-Emergence Activity SEFTA (100=total damage to plant; 0=no damage to plant)
Description: as §1

[6] = tested on: Alopecurus myosuroides (ALOMY); test: Example B pre-emergence herbicidal test, glasshouse; conditions: 312 h, rate 250 g/ha, evaluated after 13 days, 100=total damage to plant, 0=no damage to plant
Description: as §1

[7] = tested on: Amaranthus retoflexus (AMARE); test: as above; conditions: Amaranthus retroflexus, 312 h, rate 250 g/ha, evaluated after 13 days, 100=total damage to plant, 0=no damage to plant
Description: as §1

Avena fatua (AVEFA) [8] = test: as above; conditions: 312 h, rate 250 g/ha, evaluated after 13 days, 100=total damage to plant, 0=no damage to plant
Description: as §1

[9] = tested on: Echinochloa crus-galli (ECHCG); test: as above; conditions: Echinochloa crus-galli, 312 h, rate 250 g/ha, evaluated after 13 days, 100=total damage to plant, 0=no damage to plant, read-out: Pre-Emergence Activity ECHGG
Description: as §1

Setaria faberi (SETFA) [10] = test: as above; conditions: Setaria faberi, 312 h, rate 250 g/ha, evaluated after 13 days, 100=total damage to plant, 0=no damage to plant, read-out: Pre-Emergence Activity SEFTA
Description: as §1

Structure (SMILES) | pest or weed control at 250 g/ha [1] | pest or weed control at 250 g/ha [2] | pest or weed control at 250 g/ha (Avena fatua (AVEFA) [3]) | pest or weed control at 250 g/ha [4] | pest or weed control at 250 g/ha (Setaria faberi (SETFA) [5]) | pest or weed control at 250 g/ha [6] | pest or weed control at 250 g/ha [7] | pest or weed control at 250 g/ha (Avena fatua (AVEFA) [8]) | pest or weed control at 250 g/ha [9] | pest or weed control at 250 g/ha (Setaria faberi (SETFA) [10])
Cc1sc(-c2ccc(F)cc2)cc1C1C(=O)C(C)(C)C(=O)C(C)(C)C1=O [Compound T25] | 0% | 0% | 0% | 20% | 20% | – | – | – | – | –
Cc1sc(-c2ccc(C(F)(F)F)cc2)cc1C1C(=O)C(C)(C)C(=O)C(C)(C)C1=O [Compound T27] | 20% | 30% | 0% | 30% | 50% | – | – | – | – | –
Cc1cc(-c2nc(C3C(=O)C(C)(C)C(=O)C(C)(C)C3=O)c(C)s2)ccc1Cl [Compound T42] | 0% | 0% | 0% | 20% | 0% | 0% | 40% | 0% | 40% | 0%
Cc1sc(-c2ccc(Cl)c(Cl)c2)nc1C1C(=O)C(C)(C)C(=O)C(C)(C)C1=O [Compound T43] | 0% | 0% | 0% | 30% | 0% | 0% | 0% | 0% | 0% | 0%
Cc1cc(Cl)ccc1-c1nc(C2C(=O)C(C)(C)C(=O)C(C)(C)C2=O)c(C)s1 [Compound T44] | – | – | – | – | – | 0% | 0% | 0% | 30% | 0%
Cc1sc(-c2ccc(Cl)cc2Cl)nc1C1C(=O)C(C)(C)C(=O)C(C)(C)C1=O [Compound T45] | 30% | 0% | 0% | 70% | 70% | – | – | – | – | –
CCc1sc(-c2ccc(Cl)cc2F)nc1C1C(=O)C(C)(C)OC(C)(C)C1=O [Compound T47] | 100% | 0% | 100% | 100% | 100% | 70% | 20% | 90% | 70% | 90%
CCc1sc(-c2cc(F)c(Cl)cc2Cl)nc1C1C(=O)C(C)(C)OC(C)(C)C1=O [Compound T65] | 90% | 0% | 70% | 100% | 100% | – | – | – | – | –
Cc1nc(-c2ccc(Cl)cc2)sc1C1C(=O)C(C)(C)OC(C)(C)C1=O [Compound T66] | 70% | 0% | 40% | 90% | 80% | – | – | – | – | –
CSc1ccc(-c2nc(C3C(=O)C(C)(C)OC(C)(C)C3=O)c(C)s2)cc1 [Compound T67] | 0% | 0% | 0% | 90% | 70% | – | – | – | – | –
